pIC50: −log10 of the molar value. “And” between values parts separate entries of the source, which are not always exact repeats. Equal entries are not always repeated.
System: NCI-H1876 complex spheroid viability
Assay: Anticancer human tumor NCI-H1876 cell line growth inhibition [LSD1];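 also: spheroids exposed to compounds for one week before readout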;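 as to viability, T/C: 100% = DMSO vehicle-treated spheroids so lower means fewer viable cells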
Conditions: for viability, T/C: stronger effect = lower value
In short: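 Complex spheroids of tumor cells with HUVEC and human MSCs, exposed to iadademstat combined with other agents. Each agent tested in half-log steps from near clinical Cmax (else 10 microM top), DMSO ≤0.25%.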

[1] = curve of first compound, second compound 0.1 µM
[2] = curve of first compound, second compound 0.316 µM
[3] = curve of first compound, second compound 1 µM
[4] = curve of first compound, second compound 3.16 µM
[5] = curve of first compound, second compound 10 µM
[6] = second compound 0.1 µM, first compound 0.00316 µM
[7] = second compound 0.1 µM, first compound 0.01 µM
[8] = second compound 0.1 µM, first compound 0.0316 µM
[9] = second compound 0.1 µM, first compound 0.1 µM
[10] = second compound 0.1 µM, first compound 0.316 µM
[11] = second compound 0.1 µM, first compound 1 µM
[12] = second compound 0.316 µM, first compound 0.00316 µM
[13] = second compound 0.316 µM, first compound 0.01 µM
[14] = second compound 0.316 µM, first compound 0.0316 µM
[15] = second compound 0.316 µM, first compound 0.1 µM
[16] = second compound 0.316 µM, first compound 0.316 µM
[17] = second compound 0.316 µM, first compound 1 µM
[18] = second compound 1 µM, first compound 0.00316 µM
[19] = second compound 1 µM, first compound 0.01 µM
[20] = second compound 1 µM, first compound 0.0316 µM
[21] = second compound 1 µM, first compound 0.1 µM
[22] = second compound 1 µM, first compound 0.316 µM
[23] = second compound 1 µM, first compound 1 µM
[24] = second compound 3.16 µM, first compound 0.00316 µM
[25] = second compound 3.16 µM, first compound 0.01 µM
[26] = second compound 3.16 µM, first compound 0.0316 µM
[27] = second compound 3.16 µM, first compound 0.1 µM
[28] = second compound 3.16 µM, first compound 0.316 µM
[29] = second compound 3.16 µM, first compound 1 µM
[30] = second compound 10 µM, first compound 0.00316 µM
[31] = second compound 10 µM, first compound 0.01 µM
[32] = second compound 10 µM, first compound 0.0316 µM
[33] = second compound 10 µM, first compound 0.1 µM
[34] = second compound 10 µM, first compound 0.316 µM
[35] = second compound 10 µM, first compound 1 µM
[36] = second compound 0.1 µM, first compound 3.16 µM
[37] = second compound 0.1 µM, first compound 10 µM
[38] = second compound 0.316 µM, first compound 3.16 µM
[39] = second compound 0.316 µM, first compound 10 µM
[40] = second compound 1 µM, first compound 3.16 µM
[41] = second compound 1 µM, first compound 10 µM
[42] = second compound 3.16 µM, first compound 3.16 µM
[43] = second compound 3.16 µM, first compound 10 µM
[44] = second compound 10 µM, first compound 3.16 µM
[45] = second compound 10 µM, first compound 10 µM

| Structure (SMILES) | pIC50 [1] | pIC50 [2] | pIC50 [3] | pIC50 [4] | pIC50 [5] | viability, T/C [8] [%] | viability, T/C [9] [%] | viability, T/C [10] [%] | viability, T/C [11] [%] | viability, T/C [14] [%] | viability, T/C [15] [%] | viability, T/C [16] [%] | viability, T/C [17] [%] | viability, T/C [20] [%] | viability, T/C [21] [%] | viability, T/C [22] [%] | viability, T/C [23] [%] | viability, T/C [26] [%] | viability, T/C [27] [%] | viability, T/C [28] [%] | other results |
| --- | --- | --- | --- | --- | --- | --- | --- | --- | --- | --- | --- | --- | --- | --- | --- | --- | --- | --- | --- | --- | --- |
| COc1cc(Nc2ncc3c(n2)-c2ccc(Cl)cc2C(c2c(F)cccc2OC)=NC3)ccc1C(=O)O + NC1CCC(NC2CC2c2ccccc2)CC1 | 7.48 | 7.74 | 7.46 | 7.70 | 7.76 | 51.7 | 39.5 | 31.7 | 25.7 | 45.6 | 37.6 | 35 | 23.7 | 51.8 | 40 | 32.3 | 19.9 | 47.2 | 41.2 | 28.6 | viability, T/C [6]: 67.7%; viability, T/C [7]: 59.1%; viability, T/C [12]: 64.9%; viability, T/C [13]: 52.9%; viability, T/C [18]: 62.3%; viability, T/C [19]: 57.5%; viability, T/C [24]: 62.9%; viability, T/C [25]: 52.1%; viability, T/C [29]: 22.1%; viability, T/C [30]: 60.9%; viability, T/C [31]: 52.7%; viability, T/C [32]: 50.3%; viability, T/C [33]: 33.2%; viability, T/C [34]: 31.5%; viability, T/C [35]: 22.5% |
| CC1(C)CCC(CN2CCN(c3ccc(C(=O)NS(=O)(=O)c4ccc(NCC5CCOCC5)c([N+](=O)[O-])c4)c(Oc4cnc5[nH]ccc5c4)c3)CC2)=C(c2ccc(Cl)cc2)C1 + NC1CCC(NC2CC2c2ccccc2)CC1 | 5.67 | 5.70 | 5.68 | 5.69 | 5.70 | 103 | 98.4 | 99.3 | 100 | 104 | 105 | 97 | 89.1 | 92.9 | 104 | 102 | 98.9 | 115 | 96.2 | 103 | viability, T/C [36]: 24.5%; viability, T/C [37]: 9.5%; viability, T/C [38]: 24.3%; viability, T/C [39]: 10.5%; viability, T/C [40]: 22.4%; viability, T/C [41]: 8.48%; viability, T/C [29]: 101%; viability, T/C [42]: 19.8%; viability, T/C [43]: 7.55%; viability, T/C [32]: 99.2%; viability, T/C [33]: 110%; viability, T/C [34]: 87.2%; viability, T/C [35]: 90.6%; viability, T/C [44]: 23.6%; viability, T/C [45]: 8% |
| Nc1ncn(C2CC(O)C(CO)O2)c(=O)n1 (stereo unspecified) + NC1CC1c1ccc(-c2cccc(O)c2)cc1 | < 6.00 | < 6.00 | < 6.00 | < 6.00 | < 6.00 | 105 | 98.6 | 91 | 101 | 105 | 99 | 96 | 94.3 | 106 | 102 | 104 | 101 | 107 | 99.1 | 94.3 | viability, T/C [6]: 109%; viability, T/C [7]: 103%; viability, T/C [12]: 113%; viability, T/C [13]: 110%; viability, T/C [18]: 106%; viability, T/C [19]: 114%; viability, T/C [24]: 106%; viability, T/C [25]: 113%; viability, T/C [29]: 89.8%; viability, T/C [30]: 109%; viability, T/C [31]: 107%; viability, T/C [32]: 103%; viability, T/C [33]: 108%; viability, T/C [34]: 93.4%; viability, T/C [35]: 92.1% |
| COc1ccc([C@@H](O)c2cc(-c3ncnc4cc(N5CCOCC5)ccc34)c(F)cc2Cl)nn1 | – | – | – | – | – | – | – | – | – | – | – | – | – | – | – | – | – | – | – | – | viability, T/C (compound 0.0316 µM): 93.6% and 98%; viability, T/C (compound 0.1 µM): 101% and 97.7%; viability, T/C (compound 0.316 µM): 91.2% and 85.7%; viability, T/C (compound 1 µM): 84.5% and 68.1%; viability, T/C (compound 3.16 µM): 59.4% and 41.1%; viability, T/C (compound 10 µM): 25.1% and 10.8%; pIC50 (curve of compound): 5.36 and 5.67 |
| CC(C)CC(NC(=O)C(Cc1ccccc1)NC(=O)c1cnccn1)B(O)O (stereo unspecified) | – | – | – | – | – | – | – | – | – | – | – | – | – | – | – | – | – | – | – | – | viability, T/C (compound 0.000316 µM): 84% and 74.3%; viability, T/C (compound 0.001 µM): 15.6% and 0.43%; viability, T/C (compound 0.00316 µM): 8.34% and 0.27%; viability, T/C (compound 0.01 µM): 17.3% and 0.26%; viability, T/C (compound 0.0316 µM): 7.7% and 0.24%; viability, T/C (compound 0.1 µM): 13.9% and 0.31%; pIC50 (curve of compound): 9.25 and 9.34 |
| O=C(c1cc(Cc2n[nH]c(=O)c3ccccc23)ccc1F)N1CCN(C(=O)C2CC2)CC1 + NC1CC1c1ccc(-c2cccc(O)c2)cc1 | 5.21 | 5.21 | 5.20 | 5.19 | 5.19 | 101 | 99.9 | 98.2 | 90.3 | 103 | 94.9 | 97.7 | 88.3 | 106 | 99.5 | 98.3 | 88.2 | 102 | 96.9 | 101 | viability, T/C [36]: 68.3%; viability, T/C [37]: 36.9%; viability, T/C [38]: 66.8%; viability, T/C [39]: 38%; viability, T/C [40]: 70.2%; viability, T/C [41]: 36.7%; viability, T/C [29]: 88.4%; viability, T/C [42]: 72%; viability, T/C [43]: 36.3%; viability, T/C [32]: 99.5%; viability, T/C [33]: 94.1%; viability, T/C [34]: 93.2%; viability, T/C [35]: 82%; viability, T/C [44]: 69.7%; viability, T/C [45]: 38.6% |
| COc1ccc([C@@H](O)c2cc(-c3ncnc4cc(N5CCOCC5)ccc34)c(F)cc2Cl)nn1 + NC1CCC(NC2CC2c2ccccc2)CC1 | 5.51 | 5.46 | 5.42 | 5.46 | 5.50 | 109 | 97.4 | 109 | 91.2 | 112 | 105 | 95.8 | 85.3 | 113 | 107 | 99.7 | 84.7 | 113 | 113 | 94.3 | viability, T/C [36]: 49.2%; viability, T/C [37]: 23.4%; viability, T/C [38]: 50.7%; viability, T/C [39]: 21.3%; viability, T/C [40]: 53.9%; viability, T/C [41]: 24.5%; viability, T/C [29]: 76.4%; viability, T/C [42]: 54.2%; viability, T/C [43]: 21.9%; viability, T/C [32]: 101%; viability, T/C [33]: 110%; viability, T/C [34]: 94.2%; viability, T/C [35]: 70.9%; viability, T/C [44]: 53.3%; viability, T/C [45]: 26% |
| Nc1ccccc1NC(=O)c1ccc(CNC(=O)OCc2cccnc2)cc1 | – | – | – | – | – | – | – | – | – | – | – | – | – | – | – | – | – | – | – | – | viability, T/C (compound 0.00949 µM): 103% and 93.5%; viability, T/C (compound 0.03 µM): 97.7% and 77.7%; viability, T/C (compound 0.0949 µM): 79.1% and 44.3%; viability, T/C (compound 0.3 µM): 24.9% and 14%; viability, T/C (compound 0.949 µM): 10.3% and 4.22%; viability, T/C (compound 3 µM): 8.9% and 0.64%; pIC50 (curve of compound): 6.75 and 7.11 |
| CC1(C)CCC(CN2CCN(c3ccc(C(=O)NS(=O)(=O)c4ccc(NCC5CCOCC5)c([N+](=O)[O-])c4)c(Oc4cnc5[nH]ccc5c4)c3)CC2)=C(c2ccc(Cl)cc2)C1 + NC1CC1c1ccc(-c2cccc(O)c2)cc1 | 5.68 | 5.68 | 5.66 | 5.69 | 5.72 | 111 | 110 | 117 | 108 | 97.1 | 85.9 | 122 | 110 | 99.5 | 103 | 105 | 111 | 113 | 122 | 105 | viability, T/C [36]: 16.6%; viability, T/C [37]: 6.77%; viability, T/C [38]: 19.3%; viability, T/C [39]: 7.99%; viability, T/C [40]: 23.3%; viability, T/C [41]: 7.5%; viability, T/C [29]: 99.8%; viability, T/C [42]: 20.6%; viability, T/C [43]: 8.68%; viability, T/C [32]: 112%; viability, T/C [33]: 120%; viability, T/C [34]: 110%; viability, T/C [35]: 89.2%; viability, T/C [44]: 19.8%; viability, T/C [45]: 6.33% |

From PubChem BioAssay AID1918957 (Molecular Pharmacology Branch, DTP, NCI, 2023)
